Test results reported in the NIST ThermoML archive (doi:10.1016/j.fluid.2009.03.002).

Columns and labels:
[1] = cn = amount concentration of the nth substance listed, in mol/dm3; settings: 101 kPa, Liquid, Direct current cell with electrodes
[2] = wn = mass fraction of the nth substance listed; settings: 101 kPa, Liquid; for viscosity: Capillary tube (Ostwald / Ubbelohde) method; for mass density: Pycnometric method
[3] = relative permittivity at zero frequency (dimensionless); wn = mass fraction of the nth substance listed; settings: 101 kPa, Liquid, Parallel plate capacitor

N#C[S-].[Na+] [sodium thiocyanate] + CO
molar conductivity [S·m2/mol], [1]
Settings	293.15 K	298.15 K	303.15 K
c1 = 0.0006986	0.00956	0.01035	0.01085
c1 = 0.001002	0.009407	0.010245	–
c1 = 0.001281	–	–	0.0106
c1 = 0.001537	0.009271	0.0101	0.010507
c1 = 0.001773	0.009192	0.010014	0.01045
c1 = 0.002195	–	0.009936	0.010314
c1 = 0.002385	0.008993	0.009871	0.010271
c1 = 0.002561	0.00895	0.009821	0.010214
c1 = 0.003164	0.008836	0.009707	0.01008
c1 = 0.003415	0.008784	0.009675	0.010014
c1 = 0.00364	–	0.009616	0.009979
c1 = 0.003842	0.00872	–	–
c1 = 0.004191	0.008664	0.009507	0.009864
c1 = 0.004343	0.00868	–	–
c1 = 0.004729	–	0.009414	–
c1 = 0.004838	0.008578	–	0.009735
c1 = 0.005035	0.008541	–	0.009713
c1 = 0.005489	–	0.009293	–
c1 = 0.005607	–	–	0.0096
c1 = 0.005662	0.008477	–	–
c1 = 0.005855	–	0.00925	–
c1 = 0.006014	–	0.009229	–
c1 = 0.006261	–	–	0.009493
c1 = 0.006336	0.008396	–	–

CC(=O)[O-].[Na+] [sodium ethanoate] + CO
molar conductivity [S·m2/mol], [1]
Settings	293.15 K	298.15 K	303.15 K
c1 = 0.0007037	0.007613	0.00835	0.00893
c1 = 0.00101	0.007497	0.00824	0.00857
c1 = 0.00129	–	0.008107	–
c1 = 0.001548	0.007306	–	0.00804
c1 = 0.001786	0.007275	0.007949	0.00786
c1 = 0.002007	–	0.007893	0.0078
c1 = 0.002402	0.007159	0.007788	0.00754
c1 = 0.00258	0.007131	0.007732	0.0074
c1 = 0.003188	0.006994	0.007579	0.00714
c1 = 0.003441	0.006947	0.007529	0.00696
c1 = 0.003667	0.006913	0.007475	0.00692
c1 = 0.004222	0.006825	0.007371	0.0068
c1 = 0.004764	0.006759	0.007263	–
c1 = 0.004874	–	–	0.00643
c1 = 0.004976	0.006732	0.007194	–
c1 = 0.005072	–	–	0.00634
c1 = 0.005529	–	0.007125	–
c1 = 0.005591	0.006636	–	–
c1 = 0.005649	–	–	0.0062
c1 = 0.005756	0.006636	–	–
c1 = 0.005898	–	0.007044	–
c1 = 0.005982	–	–	0.00612
c1 = 0.006002	–	0.00701	–
c1 = 0.006253	0.006557	–	–
c1 = 0.006281	–	–	0.00612
c1 = 0.006493	0.00653	–	–

[I-].[Na+] [sodium iodide] + CO
molar conductivity [S·m2/mol], [1]
Settings	293.15 K	298.15 K	303.15 K
c1 = 0.0007005	0.008344	0.008814	0.0098
c1 = 0.001005	0.008236	0.008686	0.00954
c1 = 0.001541	0.00804	0.008464	0.009246
c1 = 0.001778	0.007969	0.008407	0.009148
c1 = 0.001998	–	0.008329	–
c1 = 0.002202	–	–	0.009014
c1 = 0.002391	0.00784	0.00825	0.00896
c1 = 0.002569	0.007786	0.008171	0.008907
c1 = 0.003036	0.007688	–	–
c1 = 0.003173	–	0.008019	0.00852
c1 = 0.003425	–	0.007956	0.00846
c1 = 0.003541	0.0076	–	–
c1 = 0.00365	–	0.007907	0.0084
c1 = 0.003754	0.007556	–	–
c1 = 0.004122	0.0075	–	–
c1 = 0.004203	–	0.007791	0.00825
c1 = 0.004684	0.007431	–	–
c1 = 0.004742	–	0.007697	–
c1 = 0.004852	–	–	0.00804
c1 = 0.004954	–	0.007663	–
c1 = 0.005049	–	–	0.008
c1 = 0.005094	0.007356	–	–
c1 = 0.005504	–	0.007571	–
c1 = 0.005623	–	–	0.00782
c1 = 0.005651	0.007288	–	–
c1 = 0.006031	–	0.007494	–
c1 = 0.00618	0.007194	–	–
c1 = 0.006252	–	–	0.0076
c1 = 0.006529	0.00715	–	–

CO [methanol] + OCCO
w2 = 0
Settings	mass density, 293.15 K [kg/m3]	mass density, 298.15 K [kg/m3]	mass density, 303.15 K [kg/m3]	relative permittivity at zero frequency, 293.15 K	relative permittivity at zero frequency, 298.15 K	relative permittivity at zero frequency, 303.15 K	viscosity, 293.15 K [mPa·s]	viscosity, 298.15 K [mPa·s]	viscosity, 303.15 K [mPa·s]
[2]	791	785.9	781.4	–	–	–	0.5814	0.5436	0.5112
[3]	–	–	–	33.1	32.7	31.9	–	–	–

OCCO [1,2-ethanediol] + CO
Settings	mass density, 293.15 K [kg/m3]	mass density, 298.15 K [kg/m3]	mass density, 303.15 K [kg/m3]	relative permittivity at zero frequency, 293.15 K	relative permittivity at zero frequency, 298.15 K	relative permittivity at zero frequency, 303.15 K	viscosity, 293.15 K [mPa·s]	viscosity, 298.15 K [mPa·s]	viscosity, 303.15 K [mPa·s]
[2], w1 = 0.25	864.7	860.9	858.6	–	–	–	1.127	1.03	0.9454
[2], w1 = 0.5	938.3	933.8	932.1	–	–	–	2.269	2.045	1.81
[2], w1 = 0.75	1023.4	1019.6	1017.3	–	–	–	5.8	4.904	4.232
[3], w1 = 0.25	–	–	–	35.2	34.7	33.7	–	–	–
[3], w1 = 0.5	–	–	–	37.3	36.7	35.6	–	–	–
[3], w1 = 0.75	–	–	–	39.3	38.7	37.4	–	–	–
